Source: US11219628B2, “Replacement of cytotoxic preconditioning before cellular immunotherapy” (priority 2017, dated 2022)
“Also recorded” adds a separate entry of the source. Like-named read-outs stand apart in the source and are kept apart here.

Key:
Tregs = conditions: in vivo; cited from earlier work
RBC = conditions: doses of about 24 mg/50 kg; cited from earlier work
[1] = test system: blood lymphocytes, neutrophils, RBCs, platelets; test: Rat complete blood counts 48 hours after acute dexamethasone; conditions: IV or PO 20, 40 or 80 mg/kg; for neutrophil number: all doses
[2] = test system: germinal centers in spleen; test: Mouse spleen germinal centers by FITC-PNA immunofluorescence
[3] = test system: peripheral blood T and B cells, germinal centers and marginal zones, plasma IL-2 and IL-15; test: Summary statements: acute dexamethasone doses needed for in vivo NTLA effects
Excerpt: The effects of glucocorticoids are complex and depend on each specific glucocorticoid's affinity for the GR and mineralocorticoid receptor (MR). Additionally, there are now 9 known isoforms of the cytosolic GR and additional membrane expressed GR receptors that have been identified but which are not fully characterized. […] In general, at low doses typically used for chronic therapy, glucocorticoids have been reported to redistribute lymphocytes from the peripheral blood into the bone marrow, at medium doses glucocorticoids have been reported to cause leukocytosis thought to be a redistribution of leukocytes from the bone marrow, spleen and thymus into the peripheral blood, and at high doses glucocorticoids have a lymphotoxic action on lymphocytes by triggering apoptosis and necroptosis.

IL-2, IL-15, IL-6 = type: in vivo, human; conditions: oral 3 mg/kg dexamethasone base; 48 hours
Description: (FIG. 12, FIG. 13, FIG. 14 and FIG. 15 show data from the same four human patients.)
Blood was drawn before drug treatment and 48 hours post-treatment for CBC analysis and flow cytometry to determine lymphocyte and other blood cell populations. Serum was analyzed for cytokine levels. For one patient, pre-treatment CBCs were not drawn and thus normalized flow cytometry data is shown for only 3 patients.

neutrophil function = conditions: cited from earlier work
MOPC315 cells [4] = test: Immunocompetent mouse model of multiple myeloma: preconditioning before alloHSCT or NK cells; conditions: preconditioning before alloHSCT
Description: (§1) The mouse multiple myeloma MOPC315 cell line available from ATCC is tail vein inoculated to immunocompetent Balbc mice at 2×10^6 cells.
(§2) Balb/cJ (H-2d) and B10.D2 (H-2d) mice were purchased from Jackson Laboratory (Bar Harbor, Me., USA). Mice were used when they were between 10- to 14-wk-old. […] Red blood cells are lysed using sterile filtered RBC lysis buffer (eBioscience, San Diego, USA) and cells are washed, resuspended in phosphate buffered saline (PBS) containing 3% FBS, and filtered through a 70 mM nylon membrane. For CD8 T-cell depletion, the “Mouse CD8a positive selection kit” (Stem Cell, Grenoble, France) are used according to the manufacturer's EASYSEP depletion protocol. Finally, cells are suspended in 200 ml PBS for i.v. injection. Balbc mice are transplanted by i.v. tail vein injection of 1×10^7 bone marrow cells and 7×10^7 splenocytes from donor B10.D2 mice between 10 and 30 days after MOPC315 inoculation.
(§3) For allogeneic NK cell administration, fully functional NK cells are isolated from donor B10.D2 mice using commercially available kits such as the one from Miltenyi. Alternatively, mouse NK cells can be purchased from ATCC (KIL cells). The NK Cell Isolation Kit was developed for the isolation of untouched NK cells from single-cell suspensions of murine spleen. Non-NK cells, i.e. T cells, dendritic cells, B cells, granulocytes, macrophages, and erythroid cells are magnetically labeled by using a cocktail of biotin-conjugated antibodies and Anti-Biotin MicroBeads. Isolation of highly pure unlabeled NK cells is achieved by depletion of non-target cells. The kit has been optimized to give outstanding purities in C57BL/6J mice. 1×10^7 isolated NK cells are transplanted by IV tail vein injection between 10 and 30 days after MOPC315 inoculation.

MOPC315 cells [5] = conditions: mouse, in vivo
Description: as §1, §2, §3

[6] = test system: multiple myeloma and other cancer cell lines; test: Direct tumor killing by acute dexamethasone; type: in vivo; conditions: about 1.6 mg/kg HED in a 48 hour period
Excerpt: The desired in vivo effects of exemplary NTLAs would include reductions in germinal center and marginal zones in secondary lymphatics, direct tumor killing of some cancers particularly; multiple myeloma, renal cell carcinoma, leukemia and lymphoma, non-small cell lung cancer (NSCLC), prostate and breast cancer; depletion of all peripheral blood lymphocyte types, lack of lymphocyte redistribution to the BM or other organs, and elevation of plasma cytokines including IL-2, and/or IL-7, and/or IL-12, and/or IL-15 to levels preferably of 20 pg/ml or greater, among others.

[7] = cited from earlier work
[8] = test system: blood lymphocyte populations, neutrophils, RBCs, platelets; test: Mouse CBC and flow cytometry 48 hours after oral acute dexamethasone; conditions: oral HED 3, 6, 9 or 12 mg/kg
Description: Treg lymphocytes were identified by being CD3+CD4+CD25+FoxP3+.
NK cells were identified by being CD3−CD49b+. B lymphocytes were identified by being CD3−B220+.

[9] = test system: peripheral blood lymphocytes; test: Repeat of Hinrichs dexamethasone dosing: peripheral blood lymphocytes by flow cytometry; type: in vivo; design: CD3+CD4+CD25+FoxP3+ Tregs reduction / CD3+ T lymphocytes reduction / CD3+CD4+ T lymphocytes reduction / CD3+CD8_T lymphocytes reduction: concentration or dose not given beside the values
Excerpt: Prior studies into the use of steroids to precondition a patient prior to ACT had shown this approach to be ineffective. […] In contrast, Hinrichs discloses that pretreatment with radiation did enhance ACT tumor killing. […] However, while Hinrichs reported 99% lymphodepletion, no enhancement of ACT tumor killing was observed. In contrast, Hinrichs observed that radiation does enhance ACT tumor killing. […] In contrast, CD3+ T lymphocytes were reduced from […] live events, only a non-significant […] reduction. CD3+CD4+ T lymphocytes were reduced from 1779 to 902 live events, only a non-significant 50% reduction. CD3+CD8_T lymphocytes were reduced from 1318 to 1277 live events, only a non-significant 3% reduction. CD3+CD4+CD25+FoxP3+ Tregs were reduced from 198 to 70 live events, only a non-significant 65% reduction. And natural killer (NK) cells were reduced from 1153 to 958 live events, only a non-significant 17% reduction.

[10] = test system: blood lymphocyte populations, HSCs
Description: Each patients pre-treatment values are connected to post-treatment values by a connecting line. CD4+ cells are also CD3+. CD8+ cells are also CD3+.
Each patient's pre-treatment values are connected to post-treatment values by a connecting line. Tregs are identified by being CD3+CD4+CD25+FoxP3+. B lymphocytes are identified by being CD3-CD19+.
Each patient's pre-treatment values are connected to post-treatment values by a connecting line. NK cells are identified by being CD3-CD16/56+. HSCs are identified by being CD34+CD38-.
Blood was drawn before drug treatment and 48 hours post-treatment for CBC analysis and flow cytometry to determine lymphocyte and other blood cell populations. […] For one patient, pre-treatment CBCs were not drawn and thus normalized flow cytometry data is shown for only 3 patients.

germinal centers = conditions: 1 to 4 weeks of daily dosing; up to about 10 mgs/kg/day; cited from earlier work
[11] = cited from earlier work; remark: listed apart in the source
[12] = test system: spleen weights, germinal centers; conditions: po daily for 13 weeks, mice; cited from earlier work
[13] = Hinrichs dosing, non-significant

Compound: methylprednisone
- effect on Tregs (Tregs): increases Tregs

Compound: C[C@H]1C[C@H]2[C@@H]3CCC4=CC(=O)C=C[C@]4(C)[C@@]3(F)[C@@H](O)C[C@]2(C)[C@@]1(O)C(=O)CO [Betamethasone]
- effect on RBC (RBC): reduces RBC

Compound: C[C@@H]1C[C@H]2[C@@H]3CCC4=CC(=O)C=C[C@]4(C)[C@@]3(F)[C@@H](O)C[C@]2(C)[C@@]1(O)C(=O)CO [Dexamethasone, dexamethasone]
- Hct [1]: not affected
- HgB [1]: not affected
- RBCs [1]: not affected
- platelets [1]: not affected
- neutrophil number [1]: not reduced; also recorded: increased by all doses
- neutrophil number ([1]; listed as Dex): does not reduce
- HED at which germinal centers are reduced in mice [2]: ≥ 3 mg/kg HED
- acute oral dose necessary to reduce peripheral blood T and B cells ([3]; 48 hours after administration): ≥ 3 mg/kg
- return to baseline levels of peripheral blood T and B cells ([3]; acute oral doses of 3 mg/kg or greater): 5 to 14 days after dosing
- acute dose required for lymphodepletion ([3]; in vivo): > 3 mg/kg HED
- acute dose that reduces germinal centers and marginal zones in secondary lymphatics ([3]; in vivo): ≥ 6 mg/kg HED
- dose of dexamethasone base at which plasma IL-2 and IL-15 cytokine elevations are observed ([3]; in vivo): ≥ 3 mg/kg HED
- patients with increased serum IL-2 and/or IL-15 levels (IL-2, IL-15, IL-6): 100%
- neutrophil function (neutrophil function): do not inhibit neutrophil function
- body weights after preconditioning (in words) (MOPC315 cells [4]): not reduced
- toxicity compared to standard CyFlu preconditioning (MOPC315 cells [5]): much less toxicity
- toxicity compared to standard repeat CyFlu preconditioning (MOPC315 cells [5]): less toxicity
- direct tumor killing [6]: about 50%
- lowest lethal dose ([7]; healthy mice): 114 mg/kg HED
- lowest lethal dose ([7]; tumor bearing mice): 43 mg/kg HED
- RBCs [8]: spared
- neutrophils [8]: spared
- platelets [8]: spared
- B lymphocytes reduction compared to placebo ([8]; dose for the value not stated): 83%
- CD3+ T lymphocytes reduction compared to placebo ([8]; dose for the value not stated): 65%
- CD4+ T lymphocytes reduction compared to placebo ([8]; dose for the value not stated): 75%
- CD8+ T lymphocytes reduction compared to placebo ([8]; dose for the value not stated): 56%
- Tregs reduction compared to placebo ([8]; dose for the value not stated): 78%
- absolute lymphocyte count reduction compared to placebo ([8]; dose for the value not stated): 84%
- natural killer cells (NK) reduction compared to placebo ([8]; dose for the value not stated): 87%
- RBCs ([8]; listed as Dex): spares
- neutrophils ([8]; listed as Dex): sparing
- platelets ([8]; listed as Dex): spares
- CD3+ T lymphocytes reduction [9, 13]: 33%
- CD3+CD4+ T lymphocytes reduction [9, 13]: 50%
- CD3+CD4+CD25+FoxP3+ Tregs reduction [9, 13]: 65%
- CD3+CD8_T lymphocytes reduction [9, 13]: 3%
- natural killer (NK) cells reduction [9, 13]: 17%
- CD3+CD4+CD25+FoxP3+ Tregs, live events ([9]; Hinrichs dosing, reduced from 198): 70 live events
- natural killer (NK) cells, live events ([9]; Hinrichs dosing, reduced from 1153): 958 live events
- CD3+CD8_T lymphocytes, live events ([9]; Hinrichs dosing, reduced from 1318): 1277 live events
- CD3+CD4+ T lymphocytes, live events ([9]; Hinrichs dosing, reduced from 1779): 902 live events
- CD3+ T lymphocytes, live events ([9]; intraperitoneal 10 mg/kg (HED 0.81 mg/kg) on day −6, −4, −2, reduced from 3370): 2441 live events
- B lymphocytes reduction vs vehicle control ([9]; intraperitoneal 10 mg/kg (HED 0.81 mg/kg) on day −6, −4, −2, significant): 65%
- B lymphocytes (CD3-CD19+ cells) in the peripheral blood, live events by flow cytometry ([9]; intraperitoneal 10 mg/kg (HED 0.81 mg/kg) on day −6, −4, −2, vehicle control 10680): 3733 live events
- patients showing lymphocytosis ([10]; 3 mg/kg HED): 50%
- hematopoietic stem cells (CD34+CD38-) ([10]; human, in vivo, po, 3 mg/kg): spared

Compound: C=CC[C@@H]1/C=C(\C)C[C@H](C)C[C@H](OC)[C@H]2O[C@@](O)(C(=O)C(=O)N3CCCC[C@H]3C(=O)O[C@H](/C(C)=C/[C@@H]3CC[C@@H](O)[C@H](OC)C3)[C@H](C)[C@@H](O)CC1=O)[C@H](C)C[C@@H]2OC [Tacrolimus]
- daily dosing required to reduce germinal centers (germinal centers): ≥ 0.48 mg/kg/day
- neutrophil function (neutrophil function): inhibits neutrophil function

Compound: C[C@]12C=CC(=O)C=C1CC[C@@H]1[C@@H]2C(=O)C[C@@]2(C)[C@H]1CC[C@]2(O)C(=O)CO [Prednisone]
- biologic half-life [11]: about 20 hours
- dose above which germinal centers are significantly impacted [12]: over 2.5 mg/kg
- dose above which spleen weights are significantly impacted [12]: over 2.5 mg/kg
